Experimental data reported in the supplement of paper PMC10307832.

Compound: CC1(COc2ccc3c(c2)ncn3-c2ccc3cccc(N4CCC(N)CC4)c3n2)COC1 [Crenolanib] + CC(=O)Nc1cccc(-n2c(=O)n(C3CC3)c(=O)c3c(Nc4ccc(I)cc4F)n(C)c(=O)c(C)c32)c1 [Trametinib] (partner 0.02 µM)
Assay: relative viability (nuclei count vs DMSO), 5 days (fraction); higher = more cells survive
Settings: first compound 0.01 µM
Method in brief: (§1)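 Relative viability equals treated-well nuclei counts divided by vehicle-well nuclei counts. Counts came from 4× images of lung cancer cell lines grown in 1536-well plates for 5 days after pin-tool dosing on the day after seeding. Dosing used one drug alone or a fixed anchor-drug dose plus five library-drug doses (not always all listed) in √10 steps, and values are medians of duplicate plates.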

Cell Line	relative viability
NCI-H522	0.766
NCI-H838	0.564
NCI-H1651	0.864
NCI-H1734	0.768
NCI-H2009	0.325
EPLC-272H	0.307
PC-14	0.91
LCLC-97TM1	0.215
NCI-H596	0.823
NCI-H2228	0.442
EMC-BAC-2	0.905
NCI-H2087	0.234
HCC-44	1.05
NCI-H647	0.55
LK-2	0.987
NCI-H2126	0.596
NCI-H2342	0.502

Cell Line	relative viability
SK-MES-1	0.583
HARA	0.795
COR-L23	0.58
COR-L 105	0.442
LC-2-ad	1.05
LU99A	0.527
ChaGo-K-1	0.877
NCI-H2170	0.945
NCI-H3122	0.233
HCC-78	0.826
SW 900	0.797
NCI-H1648	0.541
NCI-H1395	1.05
CAL-12T	0.466
NCI-H1793	0.349
NCI-H1944	0.426
NCI-H358	0.169

Same assay, conditions: first compound 0.03162 µM

Cell Line	relative viability
NCI-H522	0.615
NCI-H838	0.501
NCI-H1651	0.835
NCI-H1734	0.725
NCI-H2009	0.296
EPLC-272H	0.299
PC-14	0.619
LCLC-97TM1	0.176
NCI-H596	0.842
NCI-H2228	0.544
NCI-H2087	0.227
HCC-44	1.1
NCI-H647	0.442
LK-2	0.747
NCI-H2126	0.578
NCI-H2342	0.822

Cell Line	relative viability
SK-MES-1	0.549
HARA	0.955
COR-L23	0.53
COR-L 105	0.407
LC-2-ad	0.901
LU99A	0.499
ChaGo-K-1	0.895
NCI-H2170	0.93
NCI-H3122	0.21
HCC-78	0.862
NCI-H1395	1.03
CAL-12T	0.345
NCI-H1793	0.333
NCI-H1944	0.414
NCI-H358	0.11

Same assay, conditions: first compound 0.1 µM

Cell Line	relative viability
NCI-H522	0.841
NCI-H838	0.489
NCI-H1651	0.783
NCI-H1734	0.682
NCI-H2009	0.308
EPLC-272H	0.283
PC-14	0.679
LCLC-97TM1	0.186
NCI-H596	0.753
NCI-H2228	0.342
EMC-BAC-2	0.893
NCI-H2087	0.207
HCC-44	1.03
NCI-H647	0.486
LK-2	0.859
NCI-H2126	0.564
NCI-H2342	0.935

Cell Line	relative viability
SK-MES-1	0.55
HARA	0.774
COR-L23	0.418
COR-L 105	0.491
LC-2-ad	0.916
LU99A	0.514
ChaGo-K-1	0.868
NCI-H2170	0.928
NCI-H3122	0.224
HCC-78	0.682
SW 900	0.75
NCI-H1648	0.469
NCI-H1395	0.976
CAL-12T	0.372
NCI-H1793	0.363
NCI-H1944	0.375
NCI-H358	0.166

Same assay, conditions: first compound 0.3162 µM

Cell Line	relative viability
NCI-H522	0.631
NCI-H838	0.53
NCI-H1651	0.825
NCI-H1734	0.806
NCI-H2009	0.223
EPLC-272H	0.326
PC-14	0.716
LCLC-97TM1	0.188
NCI-H596	0.729
NCI-H2228	0.551
EMC-BAC-2	0.937
NCI-H2087	0.207
HCC-44	1.11
NCI-H647	0.653
LK-2	0.899
NCI-H2126	0.608
NCI-H2342	0.887

Cell Line	relative viability
SK-MES-1	0.548
HARA	0.723
COR-L23	0.606
COR-L 105	0.416
LC-2-ad	0.97
LU99A	0.618
ChaGo-K-1	0.916
NCI-H2170	0.9
NCI-H3122	0.23
HCC-78	0.756
SW 900	0.784
NCI-H1648	0.457
NCI-H1395	1
CAL-12T	0.347
NCI-H1793	0.472
NCI-H1944	0.454
NCI-H358	0.133

Same assay, conditions: first compound 1 µM

Cell Line	relative viability
NCI-H522	0.638
NCI-H838	0.439
NCI-H1651	0.847
NCI-H1734	0.765
NCI-H2009	0.235
EPLC-272H	0.277
PC-14	0.647
LCLC-97TM1	0.199
NCI-H596	0.75
NCI-H2228	0.5
EMC-BAC-2	0.799
NCI-H2087	0.193
HCC-44	0.945
NCI-H647	0.538
LK-2	0.727
NCI-H2126	0.62
NCI-H2342	0.904

Cell Line	relative viability
SK-MES-1	0.487
HARA	0.628
COR-L23	0.552
COR-L 105	0.547
LC-2-ad	0.894
LU99A	0.541
ChaGo-K-1	0.846
NCI-H2170	0.927
NCI-H3122	0.318
HCC-78	0.657
SW 900	1.18
NCI-H1648	0.514
NCI-H1395	1.14
CAL-12T	0.294
NCI-H1793	0.458
NCI-H1944	0.406
NCI-H358	0.112

Compound: CC1(COc2ccc3c(c2)ncn3-c2ccc3cccc(N4CCC(N)CC4)c3n2)COC1 [Crenolanib] + Nc1ncn([C@H]2C[C@H](O)[C@@H](CO)O2)c(=O)n1 [Decitabine] (partner 2 µM)
Assay: as above
Settings: first compound 0.01 µM
Method in brief: as §1

Cell Line	relative viability
NCI-H522	0.668
NCI-H838	0.482
NCI-H1651	0.678
NCI-H1734	0.55
NCI-H2009	0.395
EPLC-272H	0.455
PC-14	0.167
LCLC-97TM1	0.203
NCI-H596	1.09
EMC-BAC-2	1.07
NCI-H2087	0.267
HCC-44	0.933
NCI-H647	0.376
LK-2	0.304
NCI-H2126	0.544
NCI-H2342	0.766
SK-MES-1	0.315

Cell Line	relative viability
HARA	0.67
COR-L23	0.326
COR-L 105	0.684
LC-2-ad	0.833
LU99A	0.976
ChaGo-K-1	0.56
NCI-H2170	0.474
NCI-H3122	0.433
HCC-78	0.673
A549	0.208
SW 900	0.48
NCI-H1648	0.521
NCI-H1395	0.754
NCI-H1793	0.649
NCI-H1944	0.474
ABC-1	1.42
NCI-H358	0.17

Same assay, conditions: first compound 0.03162 µM

Cell Line	relative viability
NCI-H522	0.63
NCI-H838	0.463
NCI-H1651	0.583
NCI-H1734	0.549
NCI-H2009	0.367
EPLC-272H	0.391
PC-14	0.195
LCLC-97TM1	0.221
NCI-H596	0.991
NCI-H2087	0.341
HCC-44	0.925
NCI-H647	0.401
LK-2	0.203
NCI-H2126	0.564
NCI-H2342	0.649
SK-MES-1	0.451

Cell Line	relative viability
HARA	0.543
COR-L23	0.473
COR-L 105	0.669
LC-2-ad	0.844
LU99A	0.844
ChaGo-K-1	0.489
NCI-H2170	0.504
NCI-H3122	0.424
HCC-78	0.634
A549	0.258
NCI-H1395	0.674
NCI-H1793	0.495
NCI-H1944	0.441
ABC-1	1.22
NCI-H358	0.194

Same assay, conditions: first compound 0.1 µM

Cell Line	relative viability
NCI-H522	0.665
NCI-H838	0.45
NCI-H1651	0.592
NCI-H1734	0.507
NCI-H2009	0.367
EPLC-272H	0.339
PC-14	0.212
LCLC-97TM1	0.193
NCI-H596	0.933
EMC-BAC-2	0.957
NCI-H2087	0.427
HCC-44	0.944
NCI-H647	0.362
LK-2	0.285
NCI-H2126	0.61
NCI-H2342	0.742
SK-MES-1	0.42

Cell Line	relative viability
HARA	0.447
COR-L23	0.431
COR-L 105	0.698
LC-2-ad	0.759
LU99A	0.897
ChaGo-K-1	0.533
NCI-H2170	0.452
NCI-H3122	0.468
HCC-78	0.734
A549	0.282
SW 900	0.507
NCI-H1648	0.477
NCI-H1395	0.739
NCI-H1793	0.537
NCI-H1944	0.423
ABC-1	0.978
NCI-H358	0.233

Same assay, conditions: first compound 0.3162 µM

Cell Line	relative viability
NCI-H522	0.64
NCI-H838	0.466
NCI-H1651	0.589
NCI-H1734	0.591
NCI-H2009	0.364
EPLC-272H	0.391
PC-14	0.21
LCLC-97TM1	0.226
NCI-H596	1.05
EMC-BAC-2	1.11
NCI-H2087	0.303
HCC-44	0.972
NCI-H647	0.502
LK-2	0.337
NCI-H2126	0.659
NCI-H2342	0.903
SK-MES-1	0.385

Cell Line	relative viability
HARA	0.586
COR-L23	0.487
COR-L 105	0.682
LC-2-ad	0.818
LU99A	1.07
ChaGo-K-1	0.513
NCI-H2170	0.506
NCI-H3122	0.546
HCC-78	0.838
A549	0.221
SW 900	0.517
NCI-H1648	0.467
NCI-H1395	0.695
NCI-H1793	0.549
NCI-H1944	0.468
ABC-1	1.17
NCI-H358	0.21

Same assay, conditions: first compound 1 µM

Cell Line	relative viability
NCI-H522	0.607
NCI-H838	0.418
NCI-H1651	0.638
NCI-H1734	0.507
NCI-H2009	0.416
EPLC-272H	0.358
PC-14	0.226
LCLC-97TM1	0.208
NCI-H596	1.03
EMC-BAC-2	0.963
NCI-H2087	0.335
HCC-44	0.845
